Reference: ChEMBL document CHEMBL3792329, “Exploration of 3-methylisoquinoline-4-carbonitriles as protein kinase A inhibitors of Plasmodium falciparum” (Bioorg Med Chem, 2016)

Assays:
[1] = Inhibition of asexual blood stage of Plasmodium falciparum 3D7 PKA assessed as inhibition of parasite proliferation after 72 hrs by Malstat assay
[2] = Inhibition of asexual blood stage of chloroquine-resistant Plasmodium falciparum W2mef PKA assessed as inhibition of parasite proliferation after 72 hrs by Malstat assay

SMILES	IC50 [1] [µM]	IC50 [2] [µM]
CCCCNc1nc(C)c(C(N)=O)c2ccccc12	> 50	
Cc1nc(NC(C)(C)C)c2ccccc2c1C#N	5.2	4.2
CCCCCNc1nc(C)c(C#N)c2ccccc12	8.6	9.6
Cc1nc(NC2CCCCC2)c2ccccc2c1C#N	> 50	> 50
Cc1nc(NCc2ccccc2)c2ccccc2c1C#N	> 50	> 50
CCCCNc1nc(C)c(C#N)c2ccccc12	34	33
Cc1nc(NCC(C)C)c2ccccc2c1C#N	> 50	28
CCCCNc1nc(CC)c(C#N)c2ccccc12	25	22
CCNc1nc(C)c(C#N)c2ccccc12	> 50	> 50
CCCNc1nc(C)c(C#N)c2ccccc12	> 50	> 50
Cc1nc(N)c2ccccc2c1C#N	34	36
CCCCOc1nc(C)c(C#N)c2ccccc12	36	16
